In US20200032313A1 (SANYO CHEMICAL INDUSTRIES, LTD., priority 2017, published 2020):
Like-named read-outs stand apart in the source and are kept apart here.

Key:
physchem = details: pKa of the ionizable group in water at 25° C., two values where two ionizable groups
Method: (§1) The pKa of the ionizable group in water is a value determined at 25° C.

[1] = tested on: luciferase-expressing Pichia pastoris; type: cell-based; details: 8 hours culturing after addition
Method: Transformation was performed using Pichia pastoris distributed by Biotechnology Center, National Institute of Technology and Evaluation, whereby luciferase-expressing microorganisms were produced. A vector pPICZ a (Thermo Fisher Scientific) was digested with XhoI and XbaI, and a synthetic (synthesized by Thermo Fisher Scientific on commission) luciferase gene having an XhoI cut site at one end and an XbaI cut site at the other end was inserted into the vector. The microorganisms were transformed by the luciferase gene-inserted pPICZ a according to the method described in an instruction manual of pPICZ a. The luciferase-expressing microorganisms were inoculated using a platinum loop into BMGY broth, and were shake-cultured at 200 rpm at 30° C. for 15 hours. Then, the thus-obtained broth was resuspended in 125-ml BMGY broth (yeast extract 1 wt % (Difco), bacto peptone 2 wt % (Difco), yeast nitrogen base w/o amino acid 1.34 wt % (Difco), glucose 2 wt %, and 100 mM potassium hydrogen phosphate; pH: 6.0) to a final OD of 0.1 OD/ml. Further, the resuspended broth was continued to be shake-cultured at 1100 rpm at 30° C. for about 17 hours until OD was 20 to 30. When OD was 20 to 30, the broth was centrifuged (1500 g, 10 min), and resuspended in 125-ml BMMY broth, followed by culturing at 1100 rpm at 30° C. for 2 hours.
Two hours later, the surfactant described in Table 2 was added to the broth in the amount (wt %) described in Table 2, and the broth was cultured at 1100 rpm at 30° C. for 8 hours. Subsequently, the broth was sampled for measuring the optical density (optical density at the end of culturing) and for measuring the secretion efficiency. Then, these samples were subjected to centrifugation using a centrifuge to separate bacteria and the supernatant from the broth. Then, the supernatant and the bacteria were collected.
The optical density of the broth containing the microorganisms collected by sampling was measured in a quartz cell (light path of 1 cm) using a spectrophotometer (UV-1700, Shimadzu Corporation).
The broth was centrifuged at 1500 rpm at 4° C. for 5 minutes, and the supernatant was discarded. The precipitate was resuspended in a saline solution in an amount equal to the amount of the sample solution, and was diluted in the saline solution to obtain an appropriate absorbance (0.1 to 0.8). Then, the absorbance at 600 nm was measured. The optical density of the broth was calculated using the following mathematical formula (1).
Broth optical density(OD)=(Absorbance of diluted broth at 600 nm)×dilution factor of broth (Mathematical formula 1)

[2] = pKa of the ionizable group of the surfactant in water; details: two values where two ionizable groups
Method: as §1

[3] = surfactant 0.03 wt % of broth, Examples 13, 16-22

CCCCCCCCCCCC[N+](C)(C)C.[Cl-] [Surfactant (A2-1), lauryl trimethyl ammonium chloride]
pKa (physchem): 14 | Optical density (OD) of broth at the end of culturing [1, 3]: 15.8 OD

CCCCCCCCCCCC[N+](C)(C)CC(=O)[O-] [Surfactant (A3-5), betaine lauryldimethylaminoacetate]
Optical density (OD) of broth at the end of culturing [1, 3]: 26.1 OD

CCCCCCCCCCCCCCCCOP(=O)([O-])OCC[N+](C)(C)C [Surfactant (A3-4), miltefosine, reference compound]
Optical density (OD) of broth at the end of culturing [1, 3]: 30.7 OD

sodium polyoxyethylene (average 3 mol adduct) lauryl ether acetate [Surfactant (A1-2)]
Optical density (OD) of broth at the end of culturing [1, 3]: 29.1 OD | pKa of the ionizable group in water at 25° C. [2]: 3.6

sodium (2-dodecylamino)ethanesulfonate [Surfactant (A3-1)]
Optical density (OD) of broth at the end of culturing [1, 3]: 27.0 OD

sodium polyoxyethylene (average 2.5 mol adduct) lauryl ether sulfate [Surfactant (A1-1)]
Optical density (OD) of broth at the end of culturing [1, 3]: 26.8 OD | pKa of the ionizable group in water at 25° C. [2]: 2.0

CCCCCCCCCCCCNCCC(=O)O
Optical density (OD) of broth at the end of culturing ([1]; surfactant 0.003 wt % of broth, Example 12): 22.2 OD | Optical density (OD) of broth at the end of culturing [1, 3]: 21.1 OD | Optical density (OD) of broth at the end of culturing ([1]; surfactant 0.3 wt % of broth, Example 14): 18.1 OD | Optical density (OD) of broth at the end of culturing ([1]; surfactant 3 wt % of broth, Example 15): 10.5 OD

CCCCCCCCCCCC[N+](C)(C)CCCS(=O)(=O)O.[OH-] [Surfactant (A3-3), dodecyldimethyl(3-sulfopropyl)ammonium hydroxide]
Optical density (OD) of broth at the end of culturing [1, 3]: 27.6 OD
